Each structure is given as a SMILES string.

Broadly, the melting point is the temperature, or range, at which the solid turns liquid. `COCc1ncccc1CN(CCn1cc(C)c2occc2c1=O)Cc1ccc2c(c1)NC(=O)C(C)(C)C(=O)N2CC(C)C` yielded a melting point of 207 to 210 °C.

`COC(=O)c1nc(OC)sc1-c1ccccc1` gave a melting point of 86 to 88 °C.

For the molecule `CCC[C@H]1CC[C@H](CCCOc2ccc(C(=O)O[C@H](C)[C@@H](C)OC(=O)c3ccc(OCCC[C@H]4CC[C@H](CCC)CC4)cc3)cc2)CC1`, the melting point amounted to 109 °C.

The molecule `CCOC(=O)CCC(CC(=O)c1ccc(NCc2ccc3ccc4nc(C)[nH]c(=O)c4c3c2)cc1)C(=O)OCC` (racemic) yielded a melting point of 189 to 190 °C.

`CCC(Cc1ccccc1)(C(=O)c1ccc(N(C)C)cc1)N(C)C` (stereo not given) came in with a melting point of 77 to 80 °C.

Regarding `O=C(Nc1ccc(-n2nc(C(F)(F)F)cc2OC(F)F)cc1)c1ccncc1F`, the melting point fell in the range of 135 to 136 °C.

On to `CN(C)C(=O)c1ccc(CNC(=O)C2Cc3ccccc3N2S(=O)(=O)c2ccc(-c3cccc(C(F)(F)F)c3)cc2)cc1` (stereo not given), for which the melting point stood at 70 °C.

The molecule `CCc1ccc(COc2cccc3c2CN(C2CCC(=O)NC2=O)C3=O)cc1` (stereo not given) yielded a melting point of 158 to 160 °C.

Consider `CCc1nc2cc(Cn3ccnc3)ccc2n1C`, for which the melting point was determined as 127 °C.

The molecule `Cc1cc2c(Cl)ccc(-n3c(=O)cc(C(F)(F)F)n(C)c3=O)c2o1` showed a melting point of 206 to 207 °C.

`O=[N+]([O-])c1ccc(C=Cc2ccc(N3CCC(O)CC3)cc2)cc1` registered a melting point of 248 to 250 °C.

For `CC(C)n1nc(-c2c(NCc3ccncc3)nc(N)nc2-c2ccccc2)ccc1=O`, the melting point amounted to 222 °C.

`Cc1nnc(-c2ccc3occ(-c4ccc(S(C)=O)c(OC(F)(F)F)c4)c3c2)o1` (stereo not given) registered a melting point of 182 to 183 °C.

Take `COc1ccc(-c2cncc(C#N)c2N(C)c2ccc3[nH]ccc3c2)cc1OC`: the melting point fell in the range of 224 to 226 °C.

Consider `CN(C)c1ccc2c(c1)C(C)(C)C1(C=Cc3cc([N+](=O)[O-])ccc3S1)N2C` (stereo not given), for which the melting point was 166 to 167 °C.

With `CC(=O)N=c1sccn1CC(=O)c1cccc(NC(C)=O)c1`, the melting point was in the range of 224 to 226 °C.

`O=C(Nc1cccnn1)N1CCN(c2nc(-c3ccccc3)ns2)CC1`: the melting point lay in the range of 185 to 186 °C.

Turning to `OC(Cn1cncn1)(c1ccc(F)cc1F)C(c1ccc(OCc2ccccc2)cc1)n1cncn1` (stereo not given), the melting point lay in the range of 144 to 147 °C.

In the case of `CN(C)C(Cl)=Nc1snc(C(C)(C)C)c1C#N`, the melting point fell in the range of 94 to 100 °C.

As to `NC(=O)N(O)CC1CC(c2ccco2)C1` (stereo not given), the melting point lay within 89 to 100 °C.

As for `CC(O)c1c[nH]c(-c2ccccc2)n1` (stereo not given), the melting point was 197 to 198 °C.

In turn, `Clc1cc2c(cc1Cl)CCC(N1CCCC1)=C2` displayed a melting point of 141 to 142 °C.

`Cc1cc(C)c(O)c(C(CCCC(c2cc(C)cc(C)c2O)c2cc(C)cc(C)c2O)c2cc(C)cc(C)c2O)c1` came in with a melting point of 236 to 242 °C.

The molecule `CSC[C@H](Nc1cc(F)ccc1[N+](=O)[O-])C(=O)O` displayed a melting point of 147 °C.

On to `O=C(O)CSSc1ccc([N+](=O)[O-])cc1C(Cl)(Cl)Cl`, for which the melting point was found to be 140 °C.

On to `O=C(O)c1cccc2c1[nH]c1c(Cl)c(Cl)ccc12`, for which the melting point worked out at 290 °C.

As for `c1ccc(Cn2ncc3c2-c2ccccc2C3(Cc2ccncc2)Cc2ccncc2)cc1`, the melting point fell in the range of 154 to 155 °C.

For `O=C1OC(=O)c2c3ccccc3c(Cl)c3cccc1c23`, the melting point lay in the range of 269 to 271 °C.

In turn, `Cc1nc2cc(Sc3cccc4cnccc34)c([N+](=O)[O-])cc2s1` displayed a melting point of 217 to 220 °C.

Turning to `Cc1n[nH]c(CC(=O)O)c1Oc1cc(Cl)cc(Cl)c1`, the melting point fell in the range of 156 to 158 °C.

`CCC1Oc2ccc(CN3CCN(c4ccncc4)CC3)cc2NC1=O` (stereo not given) gave a melting point of 113 to 128 °C.

The molecule `CN(C)c1ccc(CNC(=O)c2cccnc2Oc2ccc(F)cc2)cc1` displayed a melting point of 99.5 to 102 °C.

In turn, `Cc1ccc(C(=O)Nc2cn(C3CCCCO3)nc2C(=O)NCC(F)(F)F)cn1` (stereo not given) displayed a melting point of 132 to 133 °C.

The molecule `CN1CCN(c2ccccc2C=CC(=O)Nc2ccc(Cl)c(Cl)c2)CC1` yielded a melting point of 192 to 193 °C.

Consider `CONC(=O)Nc1ccc(-c2sc3c(c2CN(C)C(C)(C(=O)O)c2ccccc2)c(=O)n(-c2ccccc2)c(=O)n3Cc2c(F)cccc2F)cc1` (stereo not given), for which the melting point was in the range of 147 to 149 °C.

With `C=CCOC(=O)c1cccc2c1N=C(c1ccccc1Cl)CC2=O`, the melting point was 121 °C.

Take `C=COCCOc1ccc(Oc2ccccc2)cc1`: the melting point fell in the range of 51 to 52 °C.

As for `CCCN(C1=C(O)CC(C2CCCC2)(C2CCCC2)OC1=O)c1cccc(NS(=O)(=O)c2cccs2)c1`, the melting point fell in the range of 92 to 95 °C.

The molecule `N#CCN1CCC(=C2c3ccccc3CCn3ccnc32)CC1` displayed a melting point of 220 °C.

`COC(=O)c1[nH]c2c(C)ccc(C)c2c1S(C)(=O)=O`: the melting point is 163 to 164 °C.

`O=[N+]([O-])C=C1NCC(c2ccccc2)O1` (stereo not given) registered a melting point of 139 to 141 °C.

Regarding `CC(=O)OCC(=O)Nc1nc2c(Cl)cccc2s1`, the melting point fell in the range of 205 to 207 °C.

`COC(=O)Nc1nc2ccc(O)cc2[nH]1`: the melting point is 300 °C.

As to `Clc1cc(-c2cnco2)nc(Cl)c1Cl`, the melting point fell in the range of 128 to 130 °C.

`COc1cc(C2=C(c3cn(CCCNC(=O)C(CC(C)C)NC(=O)OC(C)(C)C)c4ccccc34)C(=O)NC2=O)cc(OC)c1OC` (stereo not given) had a melting point of 140 to 142 °C.

For the molecule `Cc1cc(-c2ccccc2)n2nc(Cl)nc2n1`, the melting point was 179 to 181 °C.

`COc1ccc(Cl)c(C(=O)NCCc2ccc(S(=O)(=O)NC(=O)c3ccc(C(=O)NCCO)nc3)cc2)c1` gave a melting point of 135 to 137 °C.

`CC(C)(Nc1ccc(Cc2ccccc2)cc1)C(=O)O`: the melting point turned out to be 130 °C.

`CC1OC(n2cc(F)c(N)nc2=O)C(O)C1OC(=O)c1ccccc1` (stereo not given) gave a melting point of 127 to 129 °C.

`CSc1nc(C)c(Cc2ccc(Cl)cc2)c(=O)[nH]1`: the melting point fell in the range of 248 to 251 °C.

In the case of `CCOC(=O)c1nc(C2CC2)nc(N)c1C`, the melting point lay in the range of 130 to 132 °C.

In turn, `COc1ccc(C)cc1NC(=O)Nc1ccc(C2=CCN(C(=O)Nc3ccc(OCC(O)CO)cc3C(F)(F)F)CC2)cc1` (stereo not given) returned a melting point of 135 to 137 °C.

Consider `CCCCC[C@H]1CC[C@H](c2cnc([C@H]3CC[C@H](C#N)CC3)nc2)CC1`, for which the melting point came to 110 °C.

Regarding `O=C(O)c1cccc(Oc2ncc(C(F)(F)F)cc2Cl)c1`, the melting point amounted to 158 °C.

`COC(=O)C1=C(O)c2c(c3cc(OC)ccc3n2C)S(=O)(=O)N1` came in with a melting point of 225 to 226 °C.

Take `CS(=O)(=O)c1ccc(-n2cncc2-c2ccccc2)cc1`: the melting point came out at 164 °C.

In turn, `CC(C)c1ccc2c(c1)NC(=S)C2=O` displayed a melting point of 169 to 180 °C.

`COc1cc(C(=O)c2ccc([N+](=O)[O-])cc2)c(CC(=O)O)cc1Cl` yielded a melting point of 185 to 188 °C.

The molecule `CCCCCCCCCCCNC(=O)N(C)CC(O)C(O)C(O)C(O)CO` (stereo not given) yielded a melting point of 109 °C.

As for `COC(=O)[C@H](Cc1ccc(NC(=O)c2c(Cl)cccc2Cl)cc1)NC(=O)c1ccc(-n2nnnc2NCc2cccc(O)c2)cc1Cl`, the melting point is 155 to 158 °C.

In the case of `CC1(C)CN=C2C(=O)c3cc(S(=O)(=O)N4CCc5ccccc54)ccc3N2C1`, the melting point is 170 to 171 °C.

As to `CCC(OC(C)C)c1cc(C(=O)OC)c(N)cc1C(F)(F)F` (stereo not given), the melting point fell in the range of 54 to 56 °C.

In turn, `CCCCNC(=O)Nc1nc2cc(CN3CCN(C(c4ccccc4)c4ccccc4)CC3)ccc2n1C` displayed a melting point of 196 °C.

`Cc1c(C)c2c(c(C)c1NC(=O)NCCN(C)C)C(c1ccc(C(C)C)cc1)CO2` (stereo not given) displayed a melting point of 133 to 134 °C.

On to `O=C(C=Cc1cccc(NS(=O)(=O)/C=C/c2ccccc2)c1)NO`, for which the melting point came out at 171 °C.

`O=C(Nc1cnc2c(c1)nc1n2CCC1O)c1cc2cc(C(F)(F)F)ccc2n1Cc1cccc(F)c1` (stereo not given) returned a melting point of 267 to 268 °C.

For the molecule `COC(=O)/C=C(C)/C=C/C1(c2cc3c(cc2C)C(C)(C)CCC3(C)C)CC=CS1` (stereo not given), the melting point lay within 152 to 153 °C.

The molecule `CCCCCCCCCC(C)(C)c1cc(C(=O)Sc2ccc(C(=O)O)cc2)ccc1OC` returned a melting point of 186 to 187 °C.

On to `O=C(NNS(=O)(=O)c1ccccc1)c1ccnc2ccccc12`, for which the melting point lay within 153 to 156 °C.

Turning to `COc1cc(N)c(Cl)cc1C(=O)NCC1CCN(CCCCCNC(=O)c2ccccc2)CC1`, the melting point lay in the range of 138 to 140 °C.

`CN1CCN(c2cc(Cl)c3c(c2)N(Cc2ccccc2)C(=O)N(Cc2cccc(O)c2)S3(=O)=O)CC1` came in with a melting point of 170 to 172 °C.

`CCOC(CCc1c(N(C(C)=O)C(C)=O)nc(NC(C)=O)[nH]c1=O)OCC`: the melting point was 126 to 137 °C.

Regarding `COc1c(C)cnc(CS(=O)c2nc3ncccc3[nH]2)c1C` (stereo not given), the melting point lay within 169 to 170 °C.

The molecule `CCCC1=C(C(=O)OCC)C(c2cccc(C)c2OC)c2c[nH]nc2N1` (stereo not given) registered a melting point of 220 to 222 °C.

The molecule `O=C1NC(=O)C(c2ccsc2)O1` (stereo not given) showed a melting point of 133 to 135 °C.

`N#CNC(=Nc1ccncc1)NCCSc1ccccc1` showed a melting point of 161 to 163 °C.

Regarding `CCCN(CCC)CC1CCCCN1CCNC(=O)N1c2ccccc2NC(=O)c2cccnc21` (stereo not given), the melting point fell in the range of 149 to 151 °C.

`CCCCc1nc2cccc(C(=O)O)c2n1Cc1ccc(-c2cncnc2-c2nnn[nH]2)cc1`: the melting point was in the range of 209 to 212 °C.

With `CC1(C)CCC(C)(C)c2cc(-c3cc(-c4ccc(C(=O)O)c(O)c4)ccc3-c3ccccc3)ccc21`, the melting point is 134 to 136 °C.

The molecule `CCN(CC)c1ccc(/C=C/c2cc(/C=C/c3ccc4cc[nH]c4c3)[nH]n2)c(OCCN2CCCCC2)c1` showed a melting point of 102 to 104 °C.

Regarding `Fc1ccc(OCc2ccnc3c(Cl)cccc23)cc1`, the melting point lay in the range of 144 to 145 °C.

With `c1ccc(COc2cccc(CCCn3ccnc3)c2)cc1`, the melting point fell in the range of 82 to 83 °C.

`CCOc1nc(O)cc(OC)n1`: the melting point was 146 to 148 °C.

In turn, `CC1(C)COC(c2ccc(-c3ccc4cc(O)ccc4c3)cc2)=N1` yielded a melting point of 221 to 223 °C.

`CCCS(=O)(=O)c1ncc(C(F)(F)F)cc1Cl`: the melting point fell in the range of 41 to 42 °C.

The values are drawn from a melting point compilation (Tetko et al.; mined from patent text by program, amines drawn as free bases though some values may be those of a salt).
